From patent publication US20200291018A1, “TAM KINASE INHIBITORS” (SYROS PHARMACEUTICALS, INC., priority 2017, published 2020)
pIC50: −log10 of the molar value.

Tests used:
[1] = target: T1, FLT3 (Homo sapiens, UniProt P36888); assay: TR-FRET kinase activity assay, FLT3; type: biochemical; conditions: ATP at Km, 60 minutes
T1 sequence (P36888 27-993): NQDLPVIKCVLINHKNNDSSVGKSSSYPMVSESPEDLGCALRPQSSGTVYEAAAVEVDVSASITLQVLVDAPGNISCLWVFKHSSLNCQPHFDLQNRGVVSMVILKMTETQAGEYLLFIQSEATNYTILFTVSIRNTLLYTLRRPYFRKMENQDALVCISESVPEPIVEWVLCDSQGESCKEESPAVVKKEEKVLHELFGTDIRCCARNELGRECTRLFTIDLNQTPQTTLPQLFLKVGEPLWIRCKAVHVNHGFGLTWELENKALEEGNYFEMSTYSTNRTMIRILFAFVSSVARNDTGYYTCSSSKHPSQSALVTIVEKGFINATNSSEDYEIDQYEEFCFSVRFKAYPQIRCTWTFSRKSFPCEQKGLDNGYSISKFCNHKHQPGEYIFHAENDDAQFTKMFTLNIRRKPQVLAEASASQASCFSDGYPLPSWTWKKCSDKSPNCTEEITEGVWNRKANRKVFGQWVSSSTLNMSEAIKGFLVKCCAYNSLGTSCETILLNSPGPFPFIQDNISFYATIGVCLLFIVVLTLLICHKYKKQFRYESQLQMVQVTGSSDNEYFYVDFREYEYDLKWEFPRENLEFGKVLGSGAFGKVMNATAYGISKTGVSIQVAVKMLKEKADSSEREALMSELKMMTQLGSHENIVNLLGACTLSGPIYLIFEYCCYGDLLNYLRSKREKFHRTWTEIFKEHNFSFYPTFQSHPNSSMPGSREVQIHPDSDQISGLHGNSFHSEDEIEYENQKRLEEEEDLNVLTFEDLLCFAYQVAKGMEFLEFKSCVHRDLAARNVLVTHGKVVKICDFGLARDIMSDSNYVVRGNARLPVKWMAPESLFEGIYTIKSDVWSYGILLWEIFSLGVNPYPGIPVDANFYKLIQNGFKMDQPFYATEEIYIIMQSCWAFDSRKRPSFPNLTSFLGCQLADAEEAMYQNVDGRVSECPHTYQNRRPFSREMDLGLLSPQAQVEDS
Outline: (§1)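 Enzyme, fluorescent-labeled peptide substrate and compound were mixed, then ATP was added at each enzyme's Km. Buffer was 50 mM HEPES pH 7.5, 10 mM MgCl2, 1 mM EGTA, 0.01% Brij 35, 1 mM DTT at RT. After 60 min, EDTA quench and 30 min with Eu-anti-phosphotyrosine-site antibody; TR-FRET read gave IC50.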

[2] = target: T2, TYRO3 (Homo sapiens, UniProt Q06418); assay: TR-FRET kinase activity assay, TYRO3; type: biochemical; conditions: ATP at Km, 60 minutes
T2 sequence (Q06418 41-890): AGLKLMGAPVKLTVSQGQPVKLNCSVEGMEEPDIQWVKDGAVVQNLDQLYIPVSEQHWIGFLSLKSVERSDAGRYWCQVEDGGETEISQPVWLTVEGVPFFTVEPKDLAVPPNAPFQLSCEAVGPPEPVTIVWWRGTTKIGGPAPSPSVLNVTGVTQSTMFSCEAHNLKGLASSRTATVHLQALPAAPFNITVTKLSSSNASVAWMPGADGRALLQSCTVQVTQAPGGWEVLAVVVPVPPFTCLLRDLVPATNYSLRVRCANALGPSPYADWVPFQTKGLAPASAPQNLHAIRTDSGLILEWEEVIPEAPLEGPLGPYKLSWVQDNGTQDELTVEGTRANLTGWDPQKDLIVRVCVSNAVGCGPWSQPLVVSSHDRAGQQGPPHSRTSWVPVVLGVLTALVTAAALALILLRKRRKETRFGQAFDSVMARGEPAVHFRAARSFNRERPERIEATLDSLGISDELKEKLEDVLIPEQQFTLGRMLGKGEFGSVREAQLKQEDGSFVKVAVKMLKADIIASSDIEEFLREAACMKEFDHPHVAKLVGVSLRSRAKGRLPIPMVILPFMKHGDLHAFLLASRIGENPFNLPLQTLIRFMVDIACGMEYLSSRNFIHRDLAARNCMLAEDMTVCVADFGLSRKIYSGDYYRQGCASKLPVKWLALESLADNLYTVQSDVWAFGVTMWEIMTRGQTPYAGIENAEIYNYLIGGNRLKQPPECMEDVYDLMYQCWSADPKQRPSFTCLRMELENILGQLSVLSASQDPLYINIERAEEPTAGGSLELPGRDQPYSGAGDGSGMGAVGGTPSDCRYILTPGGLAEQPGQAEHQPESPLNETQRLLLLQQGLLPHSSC
Outline: as §1

pIC50 [1]	pIC50 [2]	SMILES
5.00 to 6.00	6.00 to 7.00	COCCN1C(C)(C)CC(Oc2ncc([C@H]3CC[C@H](O)CC3)c3nc(N[C@@H]4CCOC4)ncc23)CC1(C)C [Compound 390]
6.00 to 7.00	≥ 7.00	CCN1C(C)(C)CC(Oc2ncc([C@H]3CC[C@H](O)CC3)c3nc(N[C@@H](C)CC(F)(F)F)ncc23)CC1(C)C [Compound 391]
6.00 to 7.00	≥ 7.00	O[C@H]1CC[C@H](c2cnc(OC3CCOCC3)c3cnc(Nc4ccc(-c5nn[nH]n5)cc4)nc32)CC1 [Compound 392]
5.00 to 6.00	≥ 7.00	COC[C@H](C)Nc1ncc2c(O[C@H]3C[C@@H](C(=O)N4CCN(C)CC4)C3)ncc([C@H]3CC[C@H](O)CC3)c2n1 [Compound 393]
5.00 to 6.00	6.00 to 7.00	C[C@@H](Nc1ncc2c(OC3CCOCC3)ncc([C@H]3CC[C@H](O)CC3)c2n1)C(F)F [Compound 394]
5.00 to 6.00	5.00 to 6.00	COC[C@H](C)Nc1ncc2c(OC3CCOCC3)ncc(-c3ccc(F)cc3)c2n1 [Compound 395]
5.00 to 6.00	6.00 to 7.00	COC[C@H](C)Nc1ncc2c(OC3CCOCC3)ncc(-c3ccc(C#N)cc3)c2n1 [Compound 396]
≥ 7.00	≥ 7.00	O=C(O)c1ccc(Nc2ncc3c(OC4CCOCC4)ncc([C@H]4CC[C@H](O)CC4)c3n2)cc1 [Compound 397]
6.00 to 7.00	≥ 7.00	CNC(=O)c1ccc(Nc2ncc3c(OC4CCOCC4)ncc([C@H]4CC[C@H](O)CC4)c3n2)cc1 [Compound 398]
≥ 7.00	≥ 7.00	NC(=O)c1ccc(Nc2ncc3c(OC4CCOCC4)ncc([C@H]4CC[C@H](O)CC4)c3n2)cc1 [Compound 399]
5.00 to 6.00	6.00 to 7.00	COC[C@H](C)Nc1ncc2c(OC3CCOCC3)ncc(-c3ccc(S(C)(=O)=O)cc3)c2n1 [Compound 400]
5.00 to 6.00	6.00 to 7.00	C[C@H](CF)Nc1ncc2c(OC3CCOCC3)ncc([C@H]3CC[C@H](O)CC3)c2n1 [Compound 401]
6.00 to 7.00	≥ 7.00	C[C@@H](CC(F)(F)F)Nc1ncc2c(O[C@H]3C[C@@H](CN4CCOCC4)C3)ncc([C@H]3CC[C@H](O)CC3)c2n1 [Compound 402]
5.00 to 6.00	5.00 to 6.00	COC[C@H](C)Nc1ncc2c(C(F)(F)F)ncc([C@H]3CC[C@H](O)CC3)c2n1 [Compound 403]
5.00 to 6.00	6.00 to 7.00	CC1(Nc2ncc3c(OC4CCOCC4)ncc(-c4cccc(NS(C)(=O)=O)c4)c3n2)CC1 [Compound 404]
5.00 to 6.00	6.00 to 7.00	CC1(Nc2ncc3c(OC4CCOCC4)ncc(-c4cccc(S(=O)(=O)N5CCC5)c4)c3n2)CC1 [Compound 405]
5.00 to 6.00	≥ 7.00	C[C@H](CC(F)(F)F)Nc1ncc2c(O[C@H]3C[C@@H](O)C3)ncc([C@H]3CC[C@H](O)CC3)c2n1 [Compound 406]

pIC50 [1]	pIC50 [2]	SMILES
5.00 to 6.00	≥ 7.00	C[C@@H](COC(F)F)Nc1ncc2c(O[C@H]3C[C@@H](O)C3)ncc([C@H]3CC[C@H](O)CC3)c2n1 [Compound 407]
6.00 to 7.00	≥ 7.00	C[C@@H](CC(F)(F)F)Nc1ncc2c(O[C@H]3C[C@@H](N4CCOCC4)C3)ncc([C@H]3CC[C@H](O)CC3)c2n1 [Compound 408]
6.00 to 7.00	≥ 7.00	C[C@@H](CC(F)(F)F)Nc1ncc2c(O[C@H]3C[C@@H](O)C3)ncc(-c3ccc(C4(C#N)CC4)cc3)c2n1 [Compound 409]
5.00 to 6.00	6.00 to 7.00	O=C(O)[C@H]1CC[C@H](Nc2ncc3c(OC4CCOCC4)ncc([C@H]4CC[C@H](O)CC4)c3n2)CC1 [Compound 410]
5.00 to 6.00	≥ 7.00	C[C@H](Nc1ncc2c(O[C@H]3C[C@@H](O)C3)ncc([C@H]3CC[C@H](O)CC3)c2n1)C(F)F [Compound 411]
6.00 to 7.00	≥ 7.00	CO[C@H]1C[C@@H]1Nc1ncc2c(O[C@H]3C[C@@H](O)C3)ncc([C@H]3CC[C@H](O)CC3)c2n1 [Compound 417]
≥ 7.00	≥ 7.00	C[C@@H](CC(F)(F)F)Nc1ncc2c(OC3CC(C)(C)N(C[C@@H]4CCCO4)C(C)(C)C3)ncc([C@H]3CC[C@H](O)CC3)c2n1 [Compound 418]
5.00 to 6.00	≥ 7.00	COC[C@H](C)Nc1ncc2c(O[C@H]3C[C@H](C(=O)N4CCN(C)CC4)C3)ncc([C@H]3CC[C@H](O)CC3)c2n1 [Compound 419]
6.00 to 7.00	≥ 7.00	C[C@@H](CC(F)(F)F)Nc1ncc2c(O[C@H]3C[C@H](CN4CCOCC4)C3)ncc([C@H]3CC[C@H](O)CC3)c2n1 [Compound 420]
6.00 to 7.00	≥ 7.00	C[C@@H](CC(F)(F)F)Nc1ncc2c(O[C@H]3C[C@H](N4CCOCC4)C3)ncc([C@H]3CC[C@H](O)CC3)c2n1 [Compound 422]
6.00 to 7.00	≥ 7.00	C[C@@H](CC(F)(F)F)Nc1ncc2c(O[C@H]3C[C@@H](O)C3)ncc([C@H]3CC[C@](C)(O)CC3)c2n1 [Compound 423]
6.00 to 7.00	≥ 7.00	C[C@@H](CC(F)(F)F)Nc1ncc2c(O[C@H]3C[C@@H](O)C3)ncc([C@H]3CC[C@@](C)(O)CC3)c2n1 [Compound 424]
5.00 to 6.00	5.00 to 6.00	COC[C@H](C)Nc1ncc2c(O[C@H]3C[C@@H](O)C3)ncc(-c3ccnnc3)c2n1 [Compound 425]
5.00 to 6.00	≥ 7.00	COC[C@H](C)Nc1ncc2c(O[C@H]3C[C@@H](O)C3)ncc([C@H]3CC[C@](C)(O)CC3)c2n1 [Compound 426]
< 5.00	≥ 7.00	COC[C@H](C)Nc1ncc2c(O[C@H]3C[C@@H](O)C3)ncc([C@H]3CC[C@@](C)(O)CC3)c2n1 [Compound 427]
6.00 to 7.00	≥ 7.00	C[C@@H](CC(F)F)Nc1ncc2c(O[C@H]3C[C@@H](O)C3)ncc([C@H]3CC[C@H](O)CC3)c2n1 [Compound 428]

SMILES	pIC50 [1]	pIC50 [2]
C[C@@H](CC(F)(F)F)Nc1ncc2c(O[C@@H]3C[C@H]4CC[C@@H](C3)N4C[C@H]3CCCO3)ncc([C@H]3CC[C@H](O)CC3)c2n1 [Compound 412]	≥ 7.00	≥ 7.00
C[C@@H](CC(F)(F)F)Nc1ncc2c(O[C@@H]3C[C@H]4CC[C@@H](C3)N4[C@H]3CCOC3)ncc([C@H]3CC[C@H](O)CC3)c2n1 [Compound 413]	≥ 7.00	≥ 7.00
C[C@@H](CC(F)(F)F)Nc1ncc2c(O[C@@H]3C[C@H]4CC[C@@H](C3)N4C[C@H]3CCOC3)ncc([C@H]3CC[C@H](O)CC3)c2n1 [Compound 414]	≥ 7.00	≥ 7.00
C[C@@H](CC(F)(F)F)Nc1ncc2c(O[C@@H]3C[C@H]4CC[C@@H](C3)N4[C@@H]3CCOC3)ncc([C@H]3CC[C@H](O)CC3)c2n1 [Compound 415]	6.00 to 7.00	≥ 7.00
C[C@@H](CC(F)(F)F)Nc1ncc2c(O[C@@H]3C[C@H]4CC[C@@H](C3)N4C[C@@H]3CCOC3)ncc([C@H]3CC[C@H](O)CC3)c2n1 [Compound 416]	≥ 7.00	≥ 7.00
C[C@@H](CC(F)(F)F)Nc1ncc2c(O[C@@H]3C[C@H]4CC[C@@H](C3)N4C[C@@H]3CCCO3)ncc([C@H]3CC[C@H](O)CC3)c2n1 [Compound 421]	≥ 7.00	≥ 7.00
